# Results: the supplement of paper PMC11208160
# Test: recombinant UMI read abundance after kanamycin selection (control-corrected) (log10(CPM+1)); higher = more efficient recombination; extreme values may be limits of the assay; sequences stand for … in AGTGCAGAGAAAATCGGCCAGTTTTCTCTGCCTGCAGTCCGCATGCCGTGGGACCCCTTGGGTTCTAACCTGTTGCCTAGATTTATGCAGCGGACTGCCTTTCTCCCAAAGTGATAAACCGG…AGGTTGGTTTCACT; site = the 11-nt donor
# How it was run: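 Each donor and donor-binding-loop pair was tracked by a 12-nt UMI on a plasmid carrying a promoterless kanamycin gene. With a second plasmid supplying a fixed target and T7-inducible IS621 bridge recombinase, the pool was plated in Escherichia coli on IPTG (0.07 mM) plus kanamycin or unselected. Sequencing of recombinant UMIs across the donor–target junction gave counts expressed as log10(CPM+1) after replicate averaging and control-derived scaling.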
row,Sequence,recombinant UMI read abundance (log10)
1,ATTGAGACATGGACCGGTTTTCCCGGTAATCCGTATTTGTT (site ATTGAGACTAA),1.71
2,ATTGAGACATGGACCGGTTTTCCCGGTAATCCGTATTTGTT (site ATTGAGACTAC),0.013
3,ATTGAGACATGGACCGGTTTTCCCGGTAATCCGTATTTGTT (site ATTGAGACTAG),2.02
4,ATTGAGACATGGACCGGTTTTCCCGGTAATCCGTATTTGTT (site ATTGAGACTAT),0.811
5,ATTGAGCCATGGACCGGTTTTCCCGGTAATCCGTATTTGGT (site ATTGAGACTAC),0.00491
6,ATTGAGCCATGGACCGGTTTTCCCGGTAATCCGTATTTGGT (site ATTGAGCCTAC),0.00384
7,ATTGAGCCATGGACCGGTTTTCCCGGTAATCCGTATTTGGT (site ATTGAGGCTAC),0.0212
8,ATTGAGCCATGGACCGGTTTTCCCGGTAATCCGTATTTGGT (site ATTGAGTCTAC),0.633
9,ATTGAGGCATGGACCGGTTTTCCCGGTAATCCGTATTTGGT (site ATTGAGACTAC),0.413
10,ATTGAGGCATGGACCGGTTTTCCCGGTAATCCGTATTTGGT (site ATTGAGCCTAC),0.486
11,ATTGAGGCATGGACCGGTTTTCCCGGTAATCCGTATTTGGT (site ATTGAGGCTAC),0.927
12,ATTGAGGCATGGACCGGTTTTCCCGGTAATCCGTATTTGGT (site ATTGAGTCTAC),0.801
13,ATTGCAGCATGGACCGGTTTTCCCGGTAATCCGTATTTGAG (site ATTGCAGCTCT),1.03
14,ATTGCCGCATGGACCGGTTTTCCCGGTAATCCGTATTTGTC (site ATTGCCGCTGA),0.656
15,ATTGCCTCATGGACCGGTTTTCCCGGTAATCCGTATTTGCT (site ATTGCCTCTAG),2.03
16,ATTGCGACATGGACCGGTTTTCCCGGTAATCCGTATTTGGT (site ATTGAGACTAC),0.0594
17,ATTGCGACATGGACCGGTTTTCCCGGTAATCCGTATTTGGT (site ATTGCGACTAC),0.639

row,Sequence,recombinant UMI read abundance (log10)
1,ATTGCGACATGGACCGGTTTTCCCGGTAATCCGTATTTGGT (site ATTGGGACTAC),0.456
2,ATTGCGACATGGACCGGTTTTCCCGGTAATCCGTATTTGGT (site ATTGTGACTAC),0.225
3,ATTGGGACATGGACCGGTTTTCCCGGTAATCCGTATTTGGT (site ATTGAGACTAC),0.413
4,ATTGGGACATGGACCGGTTTTCCCGGTAATCCGTATTTGGT (site ATTGCGACTAC),0.021
5,ATTGGGACATGGACCGGTTTTCCCGGTAATCCGTATTTGGT (site ATTGGGACTAC),0.896
6,ATTGGGACATGGACCGGTTTTCCCGGTAATCCGTATTTGGT (site ATTGTGACTAC),0.0209
7,ATTGTGCCATGGACCGGTTTTCCCGGTAATCCGTATTTGAC (site ATTGTGCCTGT),0.819
8,ATTGTGCCATGGACCGGTTTTCCCGGTAATCCGTATTTGCA (site ATTGTGCCTTG),0.682
9,ATTGTGCCATGGACCGGTTTTCCCGGTAATCCGTATTTGTG (site ATTGTGCCTCA),0.054
10,ATTGTGTCATGGACCGGTTTTCCCGGTAATCCGTATTTGAC (site AATGTGTCTGT),0
11,ATTGTGTCATGGACCGGTTTTCCCGGTAATCCGTATTTGAC (site ACTGTGTCTGT),1.41
12,ATTGTGTCATGGACCGGTTTTCCCGGTAATCCGTATTTGAC (site AGTGTGTCTGT),0
13,ATTGTGTCATGGACCGGTTTTCCCGGTAATCCGTATTTGAC (site ATTGTGTCTGT),1.6
14,ATTGTTACATGGACCGGTTTTCCCGGTAATCCGTATTTGTG (site ATTGTTACTCA),0.634
15,ATTTATACATGGACCGGTTTTCCCGGTAATCCGTATTTGAC (site ATATATACTGT),0.718
16,ATTTATACATGGACCGGTTTTCCCGGTAATCCGTATTTGAC (site ATCTATACTGT),1.22
17,ATTTATACATGGACCGGTTTTCCCGGTAATCCGTATTTGAC (site ATGTATACTGT),1.21
